Earlier results in PMC6114101 (International Journal for Parasitology: Drugs and Drug …, 2018).

What was measured:
[1] = system: human ether-a-go-go-related gene (hERG) ion channel; details: ref Vidadala et al., 2016
N. caninum = details: ref Ojo et al., 2014; Winzer et al., 2015; Müller et al., 2017a
[2] = ref Ojo et al., 2013

Row | Compound | hERG inhibition [1] | activity against N. caninum in vitro (N. caninum) | excreted in urine [2] [%]
1 | CCOc1ccc2cc(-c3nn(CC4CCN(C)CC4)c4ncnc(N)c34)ccc2c1 [BKI-1294] | potent | effective | 1
2 | CCOc1ccc2cc(-c3nn(C(C)(C)C)c(N)c3C(N)=O)cnc2c1 [BKI-1517] | – | effective | –
